# Source: article PMC4830356 (ACS chemical neuroscience, 2015)
# Tests used:
# human KOR [1] = molecular target: T1, human KOR (Homo sapiens, UniProt P41145); experiment: βarrestin2 recruitment, high content imaging in U2OS-hKOR-βarr2-GFP cells; type: cell-based
# human KOR [2] = experiment: Bias analysis by fitting to the operational model; conditions: relative to U69,593; for ΔΔLogR(G−ERK): G protein coupling vs ERK1/2 phosphorylation; for ΔΔLogR(G−ERK) / ΔΔLogR(G−βarr2): ± SEM; for ΔΔLogR(G−βarr2): G protein coupling vs βarrestin2 recruitment; for bias factor (10^ΔΔLogR) G/ERK: antilog of ΔΔLogR(G−ERK); for bias factor (10^ΔΔLogR) G/βarr2: antilog of ΔΔLogR(G−βarr2)
# human KOR [3] = molecular target: T1, human KOR; experiment: [35S]GTPγS coupling; type: biochemical
# human KOR [4] = molecular target: T1, human KOR; experiment: In-cell western ERK1/2 phosphorylation in CHO-hKOR cells; type: cell-based
# T1 sequence (P41145 whole entry): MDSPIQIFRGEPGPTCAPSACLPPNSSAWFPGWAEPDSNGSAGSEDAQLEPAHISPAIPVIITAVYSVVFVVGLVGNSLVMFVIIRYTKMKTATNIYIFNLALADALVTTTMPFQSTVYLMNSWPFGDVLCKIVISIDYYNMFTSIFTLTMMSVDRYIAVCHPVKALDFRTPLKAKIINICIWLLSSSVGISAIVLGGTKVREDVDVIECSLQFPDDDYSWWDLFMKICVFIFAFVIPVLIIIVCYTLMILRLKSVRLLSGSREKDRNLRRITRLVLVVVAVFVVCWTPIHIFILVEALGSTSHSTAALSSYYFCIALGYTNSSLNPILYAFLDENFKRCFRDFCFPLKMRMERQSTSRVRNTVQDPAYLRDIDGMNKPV
smiles,measurement,setting,value
"FC(F)(F)c1ccc(Cl)c(CSc2nnc(-c3ccccn3)n2Cc2ccco2)c1 [1.1, 2-(5-((2-Chloro-5-(trifluoromethyl)benzyl)thio)-4-(furan-2-yl-methyl)-4H-1,2,4-triazol-3-yl)pyridine]",EC50,human KOR [1],8720 ± 2180 nM
same,"βarrestin2 assay % U69,593 at 10 μM",human KOR [1],"29 ± 5 % U69,593"
same,"βarrestin2 assay EMAX, % of max U69,593",human KOR [1],"56 ± 5 % of max U69,593"
same,ΔΔLogR(G−ERK),human KOR [2],2.0 ± 0.19
same,ΔΔLogR(G−βarr2),human KOR [2],1.7 ± 0.19
same,bias factor (10^ΔΔLogR) G/ERK,human KOR [2],93
same,bias factor (10^ΔΔLogR) G/βarr2,human KOR [2],47
same,EC50,human KOR [3],31.8 ± 6.4 nM
same,"G protein assay EMAX, % of max U69,593",human KOR [3],"98 ± 1 % of max U69,593"
same,EC50,human KOR [4],242 ± 46.9 nM
same,"ERK1/2 phosphorylation % U69,593 at 10 μM",human KOR [4],"114 ± 7 % U69,593"
same,"ERK1/2 phosphorylation EMAX, % of max U69,593",human KOR [4],"120 ± 10 % of max U69,593"
"FC(F)(F)c1ccc(Cl)c(CSc2nnc(-c3ccccn3)n2Cc2cccs2)c1 [1.2, 2-(5-((2-Chloro-5-(trifluoromethyl)benzyl)thio)-4-(thiophen-2-ylmethyl)-4H-1,2,4-triazol-3-yl)pyridine]",EC50,human KOR [1],6250 ± 1440 nM
same,"βarrestin2 assay % U69,593 at 10 μM",human KOR [1],"94 ± 8 % U69,593"
same,"βarrestin2 assay EMAX, % of max U69,593",human KOR [1],"147 ± 25 % of max U69,593"
same,ΔΔLogR(G−ERK),human KOR [2],2.6 ± 0.19
same,bias factor (10^ΔΔLogR) G/ERK,human KOR [2],419
same,bias factor (10^ΔΔLogR) G/βarr2,human KOR [2],122
same,EC50,human KOR [3],27.2 ± 3.5 nM
same,"G protein assay EMAX, % of max U69,593",human KOR [3],"98 ± 1 % of max U69,593"
same,EC50,human KOR [4],594 ± 115 nM
same,"ERK1/2 phosphorylation % U69,593 at 10 μM",human KOR [4],"128 ± 6 % U69,593"
same,"ERK1/2 phosphorylation EMAX, % of max U69,593",human KOR [4],"139 ± 9 % of max U69,593"
"FC(F)(F)c1ccc(Cl)c(CSc2nnc(-c3ccccn3)n2Cc2cccnc2)c1 [1.3, 2-(5-((2-Chloro-5-(trifluoromethyl)benzyl)thio)-4-(pyridin-3-ylmethyl)-4H-1,2,4-triazol-3-yl)pyridine]",EC50,human KOR [1],10100 ± 3250 nM
same,"βarrestin2 assay % U69,593 at 10 μM",human KOR [1],"38 ± 5 % U69,593"
same,"βarrestin2 assay EMAX, % of max U69,593",human KOR [1],"65 ± 6 % of max U69,593"
same,ΔΔLogR(G−ERK),human KOR [2],1.0 ± 0.19
same,ΔΔLogR(G−βarr2),human KOR [2],1.2 ± 0.20
same,bias factor (10^ΔΔLogR) G/ERK,human KOR [2],9
same,bias factor (10^ΔΔLogR) G/βarr2,human KOR [2],15
same,EC50,human KOR [3],115 ± 8.9 nM
same,"G protein assay EMAX, % of max U69,593",human KOR [3],"97 ± 1 % of max U69,593"
same,EC50,human KOR [4],108 ± 24.5 nM
same,"ERK1/2 phosphorylation % U69,593 at 10 μM",human KOR [4],"107 ± 7 % U69,593"
same,"ERK1/2 phosphorylation EMAX, % of max U69,593",human KOR [4],"114 ± 8 % of max U69,593"
"Ic1ccc(CSc2nnc(-c3ccccn3)n2Cc2ccco2)cc1 [2.1, 2-(5-((4-Iodobenzyl)thio)-4-(furan-2-ylmethyl)-4H-1,2,4-triazol-3-yl)pyridine]",EC50,human KOR [1],13500 ± 8290 nM
same,"βarrestin2 assay % U69,593 at 10 μM",human KOR [1],"105 ± 2 % U69,593"
same,"βarrestin2 assay EMAX, % of max U69,593",human KOR [1],"228 ± 96 % of max U69,593"
same,ΔΔLogR(G−ERK),human KOR [2],1.9 ± 0.19
same,ΔΔLogR(G−βarr2),human KOR [2],1.7 ± 0.19
same,bias factor (10^ΔΔLogR) G/ERK,human KOR [2],88
same,bias factor (10^ΔΔLogR) G/βarr2,human KOR [2],49
same,EC50,human KOR [3],30.3 ± 4.5 nM
same,"G protein assay EMAX, % of max U69,593",human KOR [3],"95 ± 1 % of max U69,593"
same,EC50,human KOR [4],222 ± 22.9 nM
same,"ERK1/2 phosphorylation % U69,593 at 10 μM",human KOR [4],"113 ± 8 % U69,593"
same,"ERK1/2 phosphorylation EMAX, % of max U69,593",human KOR [4],"131 ± 10 % of max U69,593"
"Ic1ccc(CSc2nnc(-c3ccccn3)n2Cc2cccs2)cc1 [2.2, 2-(5-((4-Iodobenzyl)thio)-4-(thiophen-2-ylmethyl)-4H-1,2,4-triazol-3-yl)pyridine]",EC50,human KOR [1],3570 ± 680 nM
same,"βarrestin2 assay % U69,593 at 10 μM",human KOR [1],"94 ± 9 % U69,593"
same,"βarrestin2 assay EMAX, % of max U69,593",human KOR [1],"123 ± 19 % of max U69,593"
same,ΔΔLogR(G−ERK),human KOR [2],2.5 ± 0.19
same,ΔΔLogR(G−βarr2),human KOR [2],1.5 ± 0.19
same,bias factor (10^ΔΔLogR) G/ERK,human KOR [2],304
same,bias factor (10^ΔΔLogR) G/βarr2,human KOR [2],33
same,EC50,human KOR [3],40.3 ± 8.5 nM
same,"G protein assay EMAX, % of max U69,593",human KOR [3],"100 ± 1 % of max U69,593"
same,EC50,human KOR [4],789 ± 159 nM
same,"ERK1/2 phosphorylation % U69,593 at 10 μM",human KOR [4],"131 ± 4 % U69,593"
same,"ERK1/2 phosphorylation EMAX, % of max U69,593",human KOR [4],"143 ± 4 % of max U69,593"
"Ic1ccc(CSc2nnc(-c3ccccn3)n2Cc2cccnc2)cc1 [2.3, 2-(5-((4-Iodobenzyl)thio)-4-(pyridin-3-ylmethyl)-4H-1,2,4-tri-azol-3-yl)pyridine]","βarrestin2 assay % U69,593 at 10 μM",human KOR [1],"46 ± 3 % U69,593"
same,"βarrestin2 assay EMAX, % of max U69,593",human KOR [1],"101 ± 7 % of max U69,593"
same,ΔΔLogR(G−ERK),human KOR [2],1.2 ± 0.22
same,ΔΔLogR(G−βarr2),human KOR [2],1.4 ± 0.22
same,bias factor (10^ΔΔLogR) G/ERK,human KOR [2],16
same,bias factor (10^ΔΔLogR) G/βarr2,human KOR [2],25
same,"G protein assay EMAX, % of max U69,593",human KOR [3],"98 ± 3 % of max U69,593"
same,"ERK1/2 phosphorylation % U69,593 at 10 μM",human KOR [4],"110 ± 8 % U69,593"
same,"ERK1/2 phosphorylation EMAX, % of max U69,593",human KOR [4],"109 ± 6 % of max U69,593"
"Brc1ccc(CSc2nnc(-c3ccccn3)n2Cc2ccco2)cc1 [3.1, 2-(5-((4-Bromobenzyl)thio)-4-(furan-2-ylmethyl)-4H-1,2,4-tri-azol-3-yl)pyridine]",EC50,human KOR [1],> 31000 nM
same,"βarrestin2 assay % U69,593 at 10 μM",human KOR [1],"58 ± 8 % U69,593"
same,ΔΔLogR(G−ERK),human KOR [2],1.7 ± 0.20
same,ΔΔLogR(G−βarr2),human KOR [2],1.2 ± 0.20
same,bias factor (10^ΔΔLogR) G/ERK,human KOR [2],47
same,bias factor (10^ΔΔLogR) G/βarr2,human KOR [2],17
same,EC50,human KOR [3],84.7 ± 18.4 nM
same,"G protein assay EMAX, % of max U69,593",human KOR [3],"91 ± 3 % of max U69,593"
same,EC50,human KOR [4],340 ± 25.1 nM
same,"ERK1/2 phosphorylation % U69,593 at 10 μM",human KOR [4],"114 ± 4 % U69,593"
same,"ERK1/2 phosphorylation EMAX, % of max U69,593",human KOR [4],"125 ± 2 % of max U69,593"
"Brc1ccc(CSc2nnc(-c3ccccn3)n2Cc2cccs2)cc1 [3.2, 2-(5-((4-Bromobenzyl)thio)-4-(thiophen-2-ylmethyl)-4H-1,2,4-triazol-3-yl)pyridine]",EC50,human KOR [1],1940 ± 90.9 nM
same,"βarrestin2 assay % U69,593 at 10 μM",human KOR [1],"87 ± 3 % U69,593"
same,"βarrestin2 assay EMAX, % of max U69,593",human KOR [1],"94 ± 2 % of max U69,593"
same,ΔΔLogR(G−ERK),human KOR [2],1.7 ± 0.22
same,ΔΔLogR(G−βarr2),human KOR [2],0.9 ± 0.22
same,bias factor (10^ΔΔLogR) G/ERK,human KOR [2],46
same,bias factor (10^ΔΔLogR) G/βarr2,human KOR [2],7
same,EC50,human KOR [3],66.6 ± 15.1 nM
same,"G protein assay EMAX, % of max U69,593",human KOR [3],"98 ± 1 % of max U69,593"
same,EC50,human KOR [4],672 ± 113 nM
same,"ERK1/2 phosphorylation % U69,593 at 10 μM",human KOR [4],"135 ± 8 % U69,593"
same,"ERK1/2 phosphorylation EMAX, % of max U69,593",human KOR [4],"149 ± 13 % of max U69,593"
"Brc1ccc(CSc2nnc(-c3ccccn3)n2Cc2cccnc2)cc1 [3.3, 2-(5-((4-Bromobenzyl)thio)-4-(pyridin-3-ylmethyl)-4H-1,2,4-triazol-3-yl)pyridine]",EC50,human KOR [1],> 31000 nM
same,"βarrestin2 assay % U69,593 at 10 μM",human KOR [1],"10 ± 7 % U69,593"
same,ΔΔLogR(G−ERK),human KOR [2],1.1 ± 0.19
same,ΔΔLogR(G−βarr2),human KOR [2],1.6 ± 0.22
same,bias factor (10^ΔΔLogR) G/ERK,human KOR [2],14
same,bias factor (10^ΔΔLogR) G/βarr2,human KOR [2],37
same,EC50,human KOR [3],149 ± 11.5 nM
same,"G protein assay EMAX, % of max U69,593",human KOR [3],"94 ± 4 % of max U69,593"
same,EC50,human KOR [4],227 ± 40.1 nM
same,"ERK1/2 phosphorylation % U69,593 at 10 μM",human KOR [4],"112 ± 6 % U69,593"
same,"ERK1/2 phosphorylation EMAX, % of max U69,593",human KOR [4],"117 ± 7 % of max U69,593"
